Reference: patent US9428464B2, “Kynurenine-3-monooxygenase inhibitors, pharmaceutical compositions, and methods of use thereof” (CHDI Foundation, Inc., priority 2011, dated 2016)

System: KMO
Assay: KMO activity assay: L-Kynurenine hydroxylation to 3-Hydroxy-Kynurenine, quantified by LC/MS
Format: biochemical
Details: compound at 10 uM; footnote: some portion of activity of amides may be due to contribution of acid precursor
Method: A generalized procedure for monitoring L-Kynurenine (KYN) hydroxylation to form product 3-Hydroxy-Kynurenine (3OH-KYN) by LC/MS is described below. Product is quantified by multiple reaction monitoring using MS.
A method of monitoring L-Kynurenine (KYN) hydroxylation to form product 3-Hydroxy-Kynurenine (3OH-KYN) by LC/MS is described below. Product is quantified by multiple reaction monitoring.
• Compound: Stock concentrations: 10 mM in 100% DMSO • Enzyme: KMO enzyme prepared at Evotec via mitochondria isolation from CHO-GST HIS KMO cells • Substrate: L-Kynurenine (Sigma: Cat #K3750) • [stock concentration: 10 mM in 100 mM potassium phosphate buffer, pH 7.4]
A method of monitoring L-Kynurenine (KYN) hydroxylation to form 3-Hydroxy-Kynurenine (3OH-KYN) by LC/MS is described. Product is quantified by multiple reaction monitoring (MRM method).

| SMILES | % Inhibition at 10 uM [%] |
| --- | --- |
| CN1CCN(C(=O)c2cc(-c3ccc(Cl)c(Cl)c3)ncn2)CC1=O [4-[6-(3,4-Dichloro-phenyl)-pyrimidine-4-carbonyl]-1-methyl-piperazin-2-one] | 87.44 |
| CC1C(=O)NCCN1C(=O)c1cc(-c2ccc(Cl)c(Cl)c2)ncn1 (centres unmarked) [4-[6-(3,4-Dichloro-phenyl)-pyrimidine-4-carbonyl]-3-methyl-piperazin-2-one] | 97.9 |
| O=C1CN(C(=O)c2cc(-c3ccc(Cl)c(Cl)c3)ncn2)CCN1 [4-[6-(3,4-Dichloro-phenyl)-pyrimidine-4-carbonyl]-piperazin-2-one] | 101.6 |
| O=C1CN(C(=O)c2cc(-c3ccc(F)c(F)c3)ncn2)CCN1 [4-[6-(3,4-Difluoro-phenyl)-pyrimidine-4-carbonyl]-piperazin-2-one] | 100.995 |
| O=C1CN(C(=O)c2cc(-c3cccc(Br)c3)ncn2)CCN1 [4-[6-(3-Bromo-phenyl)-pyrimidine-4-carbonyl]-piperazin-2-one] | 96.625 |
| O=C1CN(C(=O)c2cc(-c3ccc(F)c(Cl)c3)ncn2)CCN1 [4-[6-(3-Chloro-4-fluoro-phenyl)-pyrimidine-4-carbonyl]-piperazin-2-one] | 100.85 |
| O=C(N[C@H]1CCCc2ccccc21)c1cc(-c2ccc(Cl)c(Cl)c2)ncn1 [6-(3,4-Dichloro-phenyl)-pyrimidine-4-carboxylic acid (1,2,3,4-tetrahydro-naphthalen-1S-yl)-amide] | 95.92 |
| O=C(NC1CN2CCC1CC2)c1cc(-c2ccc(Cl)c(Cl)c2)ncn1 (centres unmarked) [6-(3,4-Dichloro-phenyl)-pyrimidine-4-carboxylic acid (1-aza-bicyclo[2.2.2]oct-3-yl)-amide] | 100.905 |
| Cl.O=C(NCC12CCN(CC1)CC2)c1cc(-c2ccc(Cl)c(Cl)c2)ncn1 [6-(3,4-Dichloro-phenyl)-pyrimidine-4-carboxylic acid (1-aza-bicyclo[2.2.2]oct-4-ylmethyl)-amide hydrochloride salt] | 65.78 |
| Cn1nc(NC(=O)c2cc(-c3ccc(Cl)c(Cl)c3)ncn2)c2ccccc21 [6-(3,4-Dichloro-phenyl)-pyrimidine-4-carboxylic acid (1-methyl-1H-indazol-3-yl)-amide] | 93.95 |
| Cn1ccc(NC(=O)c2cc(-c3ccc(Cl)c(Cl)c3)ncn2)n1 [6-(3,4-Dichloro-phenyl)-pyrimidine-4-carboxylic acid (1-methyl-1H-pyrazol-3-yl)-amide] | 100.05 |
| O=C(NC1(c2ccccc2)CC1)c1cc(-c2ccc(Cl)c(Cl)c2)ncn1 [6-(3,4-Dichloro-phenyl)-pyrimidine-4-carboxylic acid (1-phenyl-cyclopropyl)-amide] | 96.68 |
| CC(NC(=O)c1cc(-c2ccc(Cl)c(Cl)c2)ncn1)C1CCNCC1.Cl (centres unmarked) [6-(3,4-Dichloro-phenyl)-pyrimidine-4-carboxylic acid (1-piperidin-4-yl-ethyl)-amide hydrochloride salt] | 85.09 |
| CC1(C)CC(NC(=O)c2cc(-c3ccc(Cl)c(Cl)c3)ncn2)CC(C)(C)N1.Cl [6-(3,4-Dichloro-phenyl)-pyrimidine-4-carboxylic acid (2,2,6,6-tetramethyl-piperidin-4-yl)-amide hydrochloride salt] | 99.59 |
| CC1(C)CC(NC(=O)c2cc(-c3ccc(Cl)c(Cl)c3)ncn2)CC(C)(C)N1 [6-(3,4-Dichloro-phenyl)-pyrimidine-4-carboxylic acid (2,2,6,6-tetramethyl-piperidin-4-yl)-amide] | 100.11 |
| Cc1cc(C)c(NC(=O)c2cc(-c3ccc(Cl)c(Cl)c3)ncn2)c(C)c1 [6-(3,4-Dichloro-phenyl)-pyrimidine-4-carboxylic acid (2,4,6-trimethyl-phenyl)-amide] | 70.84 |
| Cc1ccnc(C)c1NC(=O)c1cc(-c2ccc(Cl)c(Cl)c2)ncn1 [6-(3,4-Dichloro-phenyl)-pyrimidine-4-carboxylic acid (2,4-dimethyl-pyridin-3-yl)-amide] | 85.37 |
| CN(CCN)C(=O)c1cc(-c2ccc(Cl)c(Cl)c2)ncn1.O=C(O)C(F)(F)F [6-(3,4-Dichloro-phenyl)-pyrimidine-4-carboxylic acid (2-amino-ethyl)-methyl-amide, trifluoro-acetic acid salt] | 64.52 |
| CC(C)(O)CNC(=O)c1cc(-c2ccc(Cl)c(Cl)c2)ncn1 [6-(3,4-Dichloro-phenyl)-pyrimidine-4-carboxylic acid (2-hydroxy-2-methyl-propyl)-amide] | 57.19 |

| SMILES | % Inhibition at 10 uM [%] |
| --- | --- |
| Cc1cnc(NC(=O)c2cc(-c3ccc(Cl)c(Cl)c3)ncn2)c(C)n1 [6-(3,4-Dichloro-phenyl)-pyrimidine-4-carboxylic acid (3,5-dimethyl-pyrazin-2-yl)-amide] | 97.84 |
| Cc1nsc(NC(=O)c2cc(-c3ccc(Cl)c(Cl)c3)ncn2)n1 [6-(3,4-Dichloro-phenyl)-pyrimidine-4-carboxylic acid (3-methyl-[1,2,4]-thiadiazol-5-yl)-amide] | 100.16 |
| Cl.O=C(Nc1cccc(N2CCOCC2)c1)c1cc(-c2ccc(Cl)c(Cl)c2)ncn1 [6-(3,4-Dichloro-phenyl)-pyrimidine-4-carboxylic acid (3-morpholin-4-yl-phenyl)-amide hydrochloride salt] | 99.76 |
| O=C(Nc1cccc(N2CCOCC2)c1)c1cc(-c2ccc(Cl)c(Cl)c2)ncn1 [6-(3,4-Dichloro-phenyl)-pyrimidine-4-carboxylic acid (3-morpholin-4-yl-phenyl)-amide] | 100.15 |
| Cl.O=C(Nc1cccc(C2CNCCN2)c1)c1cc(-c2ccc(Cl)c(Cl)c2)ncn1 (centres unmarked) [6-(3,4-Dichloro-phenyl)-pyrimidine-4-carboxylic acid (3-piperazin-2-yl-phenyl)-amide hydrochloride salt] | 96.58 |
| Cl.O=C(Nc1cccc(C2CCNCC2)c1)c1cc(-c2ccc(Cl)c(Cl)c2)ncn1 [6-(3,4-Dichloro-phenyl)-pyrimidine-4-carboxylic acid (3-piperidin-4-yl-phenyl)-amide hydrochloride salt] | 69.06 |
| O=C(Nc1cc(C(F)(F)F)no1)c1cc(-c2ccc(Cl)c(Cl)c2)ncn1 [6-(3,4-Dichloro-phenyl)-pyrimidine-4-carboxylic acid (3-trifluoromethyl-isoxazol-5-yl)-amide] | 101.875 |
| CN(C)C1(CNC(=O)c2cc(-c3ccc(Cl)c(Cl)c3)ncn2)CCOCC1.Cl [6-(3,4-Dichloro-phenyl)-pyrimidine-4-carboxylic acid (4-dimethylamino-tetrahydro-pyran-4-ylmethyl)-amide hydrochloride salt] | 96.81 |
| O=C(NCC1(O)CCOCC1)c1cc(-c2ccc(Cl)c(Cl)c2)ncn1 [6-(3,4-Dichloro-phenyl)-pyrimidine-4-carboxylic acid (4-hydroxy-tetrahydro-pyran-4-ylmethyl)-amide] | 74.49 |
| Cl.O=C(Nc1ccc(N2CCOCC2)cc1)c1cc(-c2ccc(Cl)c(Cl)c2)ncn1 [6-(3,4-Dichloro-phenyl)-pyrimidine-4-carboxylic acid (4-morpholin-4-yl-phenyl)-amide hydrochloride salt] | 76.95 |
| O=C(Nc1ccc(N2CCOCC2)cc1)c1cc(-c2ccc(Cl)c(Cl)c2)ncn1 [6-(3,4-Dichloro-phenyl)-pyrimidine-4-carboxylic acid (4-morpholin-4-yl-phenyl)-amide] | 101.19 |
| Cl.O=C(Nc1ccc(N2CCNCC2)cc1)c1cc(-c2ccc(Cl)c(Cl)c2)ncn1 [6-(3,4-Dichloro-phenyl)-pyrimidine-4-carboxylic acid (4-piperazin-1-yl-phenyl)-amide hydrochloride salt] | 93.13 |
| O=C(Nc1ccc(N2CCNCC2)cc1)c1cc(-c2ccc(Cl)c(Cl)c2)ncn1 [6-(3,4-Dichloro-phenyl)-pyrimidine-4-carboxylic acid (4-piperazin-1-yl-phenyl)-amide] | 43.46 |
| Cc1nnc(CNC(=O)c2cc(-c3ccc(Cl)c(Cl)c3)ncn2)o1 [6-(3,4-Dichloro-phenyl)-pyrimidine-4-carboxylic acid (5-methyl-[1,3,4]oxadiazol-2-ylmethyl)-amide] | 100.815 |
| O=C1CCC(NC(=O)c2cc(-c3ccc(Cl)c(Cl)c3)ncn2)N1 (centres unmarked) [6-(3,4-Dichloro-phenyl)-pyrimidine-4-carboxylic acid (5-oxo-pyrrolidin-2-yl)-amide] | 93.08 |
| O=C1CC(NC(=O)c2cc(-c3ccc(Cl)c(Cl)c3)ncn2)CN1 (centres unmarked) [6-(3,4-Dichloro-phenyl)-pyrimidine-4-carboxylic acid (5-oxo-pyrrolidin-3-yl)-amide] | 83.73 |
| CC(C)(C)c1nnc(NC(=O)c2cc(-c3ccc(Cl)c(Cl)c3)ncn2)o1 [6-(3,4-Dichloro-phenyl)-pyrimidine-4-carboxylic acid (5-tert-butyl-[1,3,4]oxadiazol-2-yl)-amide] | 101.4 |
| O=C(Nc1nnc(C(F)(F)F)o1)c1cc(-c2ccc(Cl)c(Cl)c2)ncn1 [6-(3,4-Dichloro-phenyl)-pyrimidine-4-carboxylic acid (5-trifluoromethyl-[1,3,4]oxadiazol-2-yl)-amide] | 102.78 |
| Cc1ccc(NC(=O)c2cc(-c3ccc(Cl)c(Cl)c3)ncn2)nn1 [6-(3,4-Dichloro-phenyl)-pyrimidine-4-carboxylic acid (6-methyl-pyridazin-3-yl)-amide] | 77.125 |
